Assays:
[1] = system: male Sprague Dawley rats with STZ-induced diabetes; experiment: Mixed meal tolerance test in male rats with streptozotocin induced diabetes; format: in vivo, rat; details: for Glucose Values 0 min. / Glucose Values 20 min. / Glucose Values 40 min. / Glucose Values 60 min. / Glucose Values 120 min. / Baseline Adjusted AUC: mean ± SE; for Baseline Adjusted AUC: glucose AUC in MTT
Experimental: Rats which have been administered streptozotocin (STZ) develop diabetes mellitus. Agents which modulate glucose levels in these animals are believed to be useful in the treatment of diabetes in humans.
The test compound is formulated by adding a vehicle of 1% hydroxyethylcellulose (HEC), 0.25% Tween® 80 w/ antifoam 0.05% to preweighed test compound to make a 2.5 mg/ml solution. The mixture is probe sonicated for approximately 30 seconds. The resulting solution is used as a stock solution, from which the lower concentration dose solutions are prepared by dilution with the vehicle. STZ, 45 mg/kg, is formulated by dissolving in 0.1M Citrate buffer in 3 ml aliquots and stored in the dark on ice, when not being administered. A high fat content mixed meal (Bio-Serv® Rodent Diet F3282 High Fat) comprising Fat Calories (60%), Carbohydrate Calories (26%) and Protein Calories (15%) is utilized. Single housed Sprague Dawley rats are allowed to acclimate for a period of 3 to 7 days.
In an effort to ensure that the animals have not recently fed, STZ is administered in the afternoon, approximately six hours into the light cycle (lights on 6 am, lights off 6 pm). The animals are anesthetized with isoflurane and STZ is delivered via tail vein injection. Once animals regain consciousness, they are returned to housing and allowed to recover for 7 days.
On the two days immediately prior to the meal tolerance test (MTT) all rats are given a small amount (2-4 g) of the F3282 diet, so they became acclimated to it prior to receiving it during the experiment. On the evening before the experiment, the rats are moved into clean cages and their food is removed. The following morning animals are weighed and a blood sample is taken by tail snip for glucose measurement (Abbott AlphaTrak glucometers: code 29). Animals are grouped n=6 based on fasted body weight and glucose. Thirty minutes after the test compound is orally administered, two glucose measurements are collected. Then a five gram pellet of Bio-Serv® diet 3282 is given. After 20 minutes remaining food is taken away and weighed. Blood samples are taken at 20, 40, 60 and 120 minutes for glucose measurement.

[2] = system: normal glycemic C57Bl/6 mouse; experiment: Oral glucose tolerance test (OGTT); format: in vivo; details: for Glucose 0 Minute: 3 h before dextrose 3 g/kg; for Glucose 0 Minute / Glucose 20 Minute / Glucose 40 Minute / Glucose 60 Minute / Glucose 120 Minute / Baseline Adjusted AUC: mean ± SE; for Glucose 20 Minute: 20 min after dextrose; for Glucose 40 Minute: 40 min after dextrose; for Glucose 60 Minute: 60 min after dextrose; for Glucose 120 Minute: 120 min after dextrose; for Baseline Adjusted AUC: glucose AUC during OGTT
Experimental: The test compound is formulated by adding a vehicle of 1% hydroxyethylcellulose, 0.25% Tween® 80 w/ antifoam 0.05% to preweighed test compound to make a 1 mg/ml solution. The mixture is probe sonicated for approximately 30 seconds. The resulting solution is used as a stock solution from which the lower concentration dose solutions are prepared by dilution with the vehicle.
Single housed C57Bl/6 mice are fasted overnight by removing access to food the late afternoon before test day. The following morning, the mice are weighed and a single fasting blood sample is taken by tail snip to measure glucose by glucometer (Roche AccuChek). Study groups (n=5) are determined based on fasted blood glucose and comprise preferably animals in the range of 80-100 mg/dl glucose.
After grouping, the first mouse is orally gavaged with 10 ml/kg test compound preparation and a timer started. Each subsequent animal is dosed a minute and a half apart. Three hours after the first compound treatment is started, a baseline blood sample is taken for measuring glucose (from the first animal, via tail snip). The animal is then immediately given an oral dose of 50% dextrose (Hospira) at 3 g/kg. Blood samples are taken for glucose, exactly a minute and half apart, by tail vein so that blood is collected in each animal at 20, 40, 60 and 120 minutes after the dextrose dose.

[3] = result in words, Example 1 10 and 30 mg/kg, Acarbose 60 mg/kg

Compound: C[C@H]1O[C@H](O[C@H]2[C@H](O)[C@@H](O)[C@@H](O[C@H]3[C@H](O)[C@@H](O)C(O)O[C@@H]3CO)O[C@@H]2CO)[C@H](O)[C@@H](O)[C@@H]1N[C@H]1C=C(CO)[C@@H](O)[C@H](O)[C@H]1O (stereo partly shown) [Acarbose, reference compound]
- Glucose Values 0 min. ([1]; 60 mg/kg oral): 124 ± 16.9 mg/dL
- Glucose Values 20 min. ([1]; 60 mg/kg oral): 181 ± 22.8 mg/dL
- Glucose Values 40 min. ([1]; 60 mg/kg oral): 301.3 ± 51.2 mg/dL
- Glucose Values 60 min. ([1]; 60 mg/kg oral): 371.5 ± 63.9 mg/dL
- Glucose Values 120 min. ([1]; 60 mg/kg oral): 433.7 ± 83 mg/dL
- Baseline Adjusted AUC ([1]; 60 mg/kg oral): 23877 ± 4649
- glucose baseline adjusted AUCs in the MTT [1, 3]: significantly decreases
- glucose in the MTT compared to the vehicle controls [1, 3]: did not significantly decrease

Compound: Cc1cc(/C=C/CCN2CCCC3(CCNCC3)C2)ccc1Cc1c(O[C@@H]2O[C@H](CO)[C@@H](O)[C@H](O)[C@H]2O)n[nH]c1C(C)C [Example 1, 4-{4-[(1E)-4-(2,9-diazaspiro[5.5]undec-2-yl)but-1-en-1-yl]-2-methylbenzyl}-5-(propan-2-yl)-1H-pyrazol-3-yl beta-D-glucopyranoside]
- Glucose 0 Minute ([2]; 0.3 mg/kg oral): 78 ± 4.2 mg/dL
- Glucose 20 Minute ([2]; 0.3 mg/kg oral): 185 ± 13.7 mg/dL
- Glucose 40 Minute ([2]; 0.3 mg/kg oral): 197 ± 14.7 mg/dL
- Glucose 60 Minute ([2]; 0.3 mg/kg oral): 164 ± 6.3 mg/dL
- Glucose 120 Minute ([2]; 0.3 mg/kg oral): 121 ± 11.8 mg/dL
- Baseline Adjusted AUC ([2]; 0.3 mg/kg oral): 5400 ± 519^
- Glucose 0 Minute ([2]; 1 mg/kg oral): 76 ± 3.3 mg/dL
- Glucose 20 Minute ([2]; 1 mg/kg oral): 147 ± 8.3 mg/dL
- Glucose 40 Minute ([2]; 1 mg/kg oral): 171 ± 11.1 mg/dL
- Glucose 60 Minute ([2]; 1 mg/kg oral): 162 ± 5.8 mg/dL
- Glucose 120 Minute ([2]; 1 mg/kg oral): 109 ± 7.3 mg/dL
- Baseline Adjusted AUC ([2]; 1 mg/kg oral): 4158 ± 374^
- Glucose 0 Minute ([2]; 3 mg/kg oral): 72 ± 2.6 mg/dL
- Glucose 20 Minute ([2]; 3 mg/kg oral): 133 ± 7.1 mg/dL
- Glucose 40 Minute ([2]; 3 mg/kg oral): 150 ± 7.5 mg/dL
- Glucose 60 Minute ([2]; 3 mg/kg oral): 155 ± 7.2 mg/dL
- Glucose 120 Minute ([2]; 3 mg/kg oral): 115 ± 10 mg/dL
- Baseline Adjusted AUC ([2]; 3 mg/kg oral): 3606 ± 421
- Glucose 0 Minute ([2]; 10 mg/kg oral): 78 ± 5.4 mg/dL
- Glucose 20 Minute ([2]; 10 mg/kg oral): 124 ± 1.2 mg/dL
- Glucose 40 Minute ([2]; 10 mg/kg oral): 137 ± 5.4 mg/dL
- Glucose 60 Minute ([2]; 10 mg/kg oral): 138 ± 6.1 mg/dL
- Glucose 120 Minute ([2]; 10 mg/kg oral): 114 ± 4.3 mg/dL
- Baseline Adjusted AUC ([2]; 10 mg/kg oral): 2693 ± 309
- average maximum concentration of plasma glucose (Cmax) during the OGTT ([2]; 0.3-10 mg/kg, result in words): dose dependently decreases
- average time that it takes for glucose to reach maximum concentration (Tmax) ([2]; 0.3-10 mg/kg, result in words): increasing
- Glucose Values 0 min. ([1]; 10 mg/kg oral): 139 ± 16.1 mg/dL
- Glucose Values 20 min. ([1]; 10 mg/kg oral): 221.2 ± 26.3 mg/dL
- Glucose Values 40 min. ([1]; 10 mg/kg oral): 268.7 ± 29 mg/dL
- Glucose Values 60 min. ([1]; 10 mg/kg oral): 330 ± 36.7 mg/dL
- Glucose Values 120 min. ([1]; 10 mg/kg oral): 490.8 ± 39.2 mg/dL
- Baseline Adjusted AUC ([1]; 10 mg/kg oral): 22432 ± 2234
- Glucose Values 0 min. ([1]; 30 mg/kg oral): 137.4 ± 26.9 mg/dL
- Glucose Values 20 min. ([1]; 30 mg/kg oral): 195.4 ± 44.8 mg/dL
- Glucose Values 40 min. ([1]; 30 mg/kg oral): 232 ± 52.2 mg/dL
- Glucose Values 60 min. ([1]; 30 mg/kg oral): 263.9 ± 62.2 mg/dL
- Glucose Values 120 min. ([1]; 30 mg/kg oral): 355.3 ± 73.2 mg/dL
- Baseline Adjusted AUC ([1]; 30 mg/kg oral): 14649 ± 3673
